We go through one compound from ChEMBL document CHEMBL5034004, “Discovery of M3 Antagonist-PDE4 Inhibitor Dual Pharmacology Molecules for the Treatment of Chronic Obstructive Pulmonary Disease” (J Med Chem, 2021).

Data set [1] deals with Muscarinic acetylcholine receptor M3 (Homo sapiens, UniProt P20309). The experiment in a line: Displacement of [3H]-N-methyl Scopolamine Chloride from human M3 receptor membranes incubated for 2 hrs by scintillation counting analysis. Type of data set: cell membranes, Cell membrane. Background: In a radioligand displacement assay an active substance lowers the binding of a labelled ligand.

Data set [2] is described as follows: Antagonist activity at muscarinic M3 receptor in guinea pig trachea assessed as inhibition of carbachol-induced contraction. The class given is tissue-based, Cavia porcellus.
The target in data set [3] is 3',5'-cyclic-AMP phosphodiesterase 4B (Homo sapiens, UniProt Q07343). The data set can be described thus: Inhibition of human recombinant PDE4B2 assessed as […] in cAMP level incubated for 2 hrs by LANCE Ultra cAMP TR-FRET assay. For orientation: cAMP levels reflect the balance of adenylyl cyclase and phosphodiesterase activity.
Data set [4] is described as follows: Antiinflammatory activity in human PBMCs assessed as inhibition of LPS-induced TNF-alpha release measured after 18 hrs by ELISA. Type of data set: functional, tissue-based, PBMC. The settings on record: pbmc. Background: ELISA stands for enzyme-linked immunosorbent assay.
The nature of data set [5]: Kinetic solubility of compound in PBS at pH 7.4 […] incubated for 2 hrs by LC-UV and LC-MS analysis. The class given is physicochemical. The note with it: read-out: Kinetic_solubility.
Data set [6] has as its system Cavia porcellus. The experiment in a line: Bronchodilatory activity in IT dosed Dunkin Hartley guinea pig model assessed as inhibition of acetylcholine-induced bronchoconstriction measured after 1 hr by Konzett-Roessler methodology. The class given is functional. The settings on record: 1 h.
In data set [7] the test system is Cavia porcellus. The data set can be described thus: Bronchodilatory activity in Dunkin Hartley guinea pig model assessed as inhibition of acetylcholine-induced bronchoconstriction at 3 nmol/kg, IT measured after 1 hr by Konzett-Roessler methodology relative to control. Type of data set: functional. The note with it: 0.003 umol/kg, 1 h.
In data set [8] the test system is Cavia porcellus. The data set can be described thus: Bronchodilatory activity in Dunkin Hartley guinea pig model assessed as inhibition of acetylcholine-induced bronchoconstriction at 3 nmol/kg, IT measured after 16 hrs by Konzett-Roessler methodology relative to control. The class given is functional. The settings on record: 0.003 umol/kg.
Data set [9] deals with Muscarinic acetylcholine receptor M3 (Rattus norvegicus, UniProt P08483). The data set can be described thus: Antagonist activity at muscarinic M3 receptor in rat trachea assessed as inhibition of carbachol-induced contraction. The class given is functional, tissue-based.
Data set [10] in a line: Toxicity in ferret assessed as nausea-like score at 10 umol/kg, IT observed for 4 hrs (Rvb= 12.83+/-5.10). Set-up: species or system Mustela putorius furo. The note with it: in vivo, inhaled_or_intranasal, dose 10 µmol/kg.
Data set [11] deals with T1, Muscarinic acetylcholine receptor M2 (Homo sapiens, UniProt P08172).
T1 sequence (P08172 whole entry): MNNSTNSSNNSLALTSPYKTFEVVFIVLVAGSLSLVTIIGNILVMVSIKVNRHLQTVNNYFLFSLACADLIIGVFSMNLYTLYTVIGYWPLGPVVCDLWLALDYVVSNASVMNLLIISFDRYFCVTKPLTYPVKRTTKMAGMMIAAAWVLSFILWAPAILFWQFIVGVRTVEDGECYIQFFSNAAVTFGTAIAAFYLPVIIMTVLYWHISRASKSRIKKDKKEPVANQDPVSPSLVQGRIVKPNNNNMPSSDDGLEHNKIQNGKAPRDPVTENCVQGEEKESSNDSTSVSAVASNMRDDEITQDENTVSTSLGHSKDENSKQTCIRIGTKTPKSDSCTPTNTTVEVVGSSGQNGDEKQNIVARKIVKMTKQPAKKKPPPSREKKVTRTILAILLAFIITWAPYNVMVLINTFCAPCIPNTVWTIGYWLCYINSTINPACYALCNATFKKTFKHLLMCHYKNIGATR
The experiment in a line: Displacement of [3H]-N-methyl Scopolamine Chloride from human M2 receptor membranes incubated for 2 hrs by scintillation counting analysis. Type of data set: cell membranes, Cell membrane.

The subject of data set [12] is Rattus norvegicus. The data set can be described thus: Antiinflammatory activity in ovalbumin induced Brown Norway rat airway inflammation model assessed as reduction in eosinophil counts in bronchoalveolar lavage administered via inhalation for 3 consecutive days and measured after 24 hrs post last dose. The settings on record: inhaled or nasal. Type of data set: functional.

Data set [13] deals with Rattus norvegicus. The experiment in a line: Antiinflammatory activity in ovalbumin induced Brown Norway rat airway inflammation model assessed as reduction in eosinophil counts in bronchoalveolar lavage at 1 umol/kg, INH for 3 consecutive days and measured after 24 hrs post last dose. The note with it: dose 1 µmol/kg; time 3 day. Also noted: scale not given: the % may be the effect or the level left. Type of data set: functional.

Data set [14] can be described thus: Plasma protein binding in human assessed as bound fraction at 0.5 to 2 uM measured after 30 mins by HPLC-MS/MS analysis. The note with it: dose 0.5-2 µM, read-out: PPB (converted). Type of data set: ADME, cell-free.
A short description of data set [15]: Plasma protein binding in rat assessed as bound fraction at 0.5 to 2 uM measured after 30 mins by HPLC-MS/MS analysis. Type of data set: ADME, cell-free. The settings on record: dose 0.5-2 µM, read-out: PPB (converted).
The nature of data set [16]: Stability in human plasma assessed as half life at 5 uM measured up to 180 mins by HPLC-MS/MS analysis. The class given is ADME, cell-free.
Data set [17] in a line: Stability in rat plasma assessed as half life at 5 uM measured up to 180 mins by HPLC-MS/MS analysis. Type of data set: ADME, cell-free.
A short description of data set [18]: Microsomal stability in human liver microsomes assessed as intrinsic clearance at 1 uM measured up to 60 mins by HPLC-MS/MS analysis. Type of data set: ADME, Microsome. The settings on record: read-out: CLH.
Data set [19] can be described thus: Microsomal stability in rat liver microsomes assessed as intrinsic clearance at 1 uM measured up to 60 mins by HPLC-MS/MS analysis. Type of data set: ADME, Microsome. The settings on record: read-out: CLH.
Data set [20] is described as follows: Permeability across apical to basolateral side in human Caco2 cells at 10 uM measured after 1 hr by LC-MS/MS analysis. The class given is ADME, cell-based. The note with it: Caco-2.
The nature of data set [21]: Toxicity in ferret assessed as nausea-like score at 1 umol/kg, IT observed for 4 hrs (Rvb= 12.83+/-5.10). Also noted: species or system Mustela putorius furo. The settings on record: in vivo, inhaled_or_intranasal, dose 1 µmol/kg.
Data set [22] is described as follows: Toxicity in ferret assessed as induction of emesis at 1 umol/kg, IT measured for 4 hrs. Also noted: species or system Mustela putorius furo. The settings on record: in vivo, inhaled_or_intranasal, dose 1 µmol/kg.
A short description of data set [23]: Toxicity in ferret assessed as induction of emesis at 10 umol/kg, IT measured for 4 hrs. Set-up: species or system Mustela putorius furo. The note with it: in vivo, inhaled_or_intranasal, dose 10 µmol/kg.

Structures are written as SMILES. Values after ≈ are worked out from the molar mass of the structure shown.

Sequence of Muscarinic acetylcholine receptor M3 (Homo sapiens, UniProt P20309) (P20309 whole entry): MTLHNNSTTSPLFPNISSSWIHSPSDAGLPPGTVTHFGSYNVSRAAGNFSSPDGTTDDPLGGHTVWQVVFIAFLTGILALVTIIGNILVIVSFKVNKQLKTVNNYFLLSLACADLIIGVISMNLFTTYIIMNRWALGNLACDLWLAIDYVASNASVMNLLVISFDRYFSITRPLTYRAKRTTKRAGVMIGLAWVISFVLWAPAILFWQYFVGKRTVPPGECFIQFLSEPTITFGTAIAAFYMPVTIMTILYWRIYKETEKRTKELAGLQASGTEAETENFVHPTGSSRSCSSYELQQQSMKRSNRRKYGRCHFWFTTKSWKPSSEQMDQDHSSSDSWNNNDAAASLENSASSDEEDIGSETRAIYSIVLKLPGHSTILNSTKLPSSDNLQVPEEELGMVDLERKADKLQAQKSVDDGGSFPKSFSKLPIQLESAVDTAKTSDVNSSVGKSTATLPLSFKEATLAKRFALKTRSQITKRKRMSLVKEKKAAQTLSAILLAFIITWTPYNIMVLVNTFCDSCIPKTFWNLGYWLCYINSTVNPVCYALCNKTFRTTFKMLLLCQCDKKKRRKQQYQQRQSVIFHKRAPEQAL
Sequence of Muscarinic acetylcholine receptor M3 (Rattus norvegicus, UniProt P08483) (P08483 whole entry): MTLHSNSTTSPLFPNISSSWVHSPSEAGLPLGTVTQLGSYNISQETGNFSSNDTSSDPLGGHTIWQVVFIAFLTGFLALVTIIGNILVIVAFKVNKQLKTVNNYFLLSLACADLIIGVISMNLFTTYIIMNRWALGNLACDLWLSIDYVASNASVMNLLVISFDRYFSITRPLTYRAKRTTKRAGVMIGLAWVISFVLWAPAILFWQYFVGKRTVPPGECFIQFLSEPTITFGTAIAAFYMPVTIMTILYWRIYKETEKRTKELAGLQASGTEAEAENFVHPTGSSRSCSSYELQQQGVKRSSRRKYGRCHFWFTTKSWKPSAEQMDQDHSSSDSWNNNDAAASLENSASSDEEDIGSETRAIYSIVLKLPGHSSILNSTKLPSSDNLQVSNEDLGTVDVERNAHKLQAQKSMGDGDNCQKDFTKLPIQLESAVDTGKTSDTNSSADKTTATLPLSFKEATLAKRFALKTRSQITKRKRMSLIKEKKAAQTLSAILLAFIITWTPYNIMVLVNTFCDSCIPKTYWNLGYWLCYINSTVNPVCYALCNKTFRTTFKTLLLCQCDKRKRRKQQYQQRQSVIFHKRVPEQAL
Sequence of 3',5'-cyclic-AMP phosphodiesterase 4B (Q07343 whole entry): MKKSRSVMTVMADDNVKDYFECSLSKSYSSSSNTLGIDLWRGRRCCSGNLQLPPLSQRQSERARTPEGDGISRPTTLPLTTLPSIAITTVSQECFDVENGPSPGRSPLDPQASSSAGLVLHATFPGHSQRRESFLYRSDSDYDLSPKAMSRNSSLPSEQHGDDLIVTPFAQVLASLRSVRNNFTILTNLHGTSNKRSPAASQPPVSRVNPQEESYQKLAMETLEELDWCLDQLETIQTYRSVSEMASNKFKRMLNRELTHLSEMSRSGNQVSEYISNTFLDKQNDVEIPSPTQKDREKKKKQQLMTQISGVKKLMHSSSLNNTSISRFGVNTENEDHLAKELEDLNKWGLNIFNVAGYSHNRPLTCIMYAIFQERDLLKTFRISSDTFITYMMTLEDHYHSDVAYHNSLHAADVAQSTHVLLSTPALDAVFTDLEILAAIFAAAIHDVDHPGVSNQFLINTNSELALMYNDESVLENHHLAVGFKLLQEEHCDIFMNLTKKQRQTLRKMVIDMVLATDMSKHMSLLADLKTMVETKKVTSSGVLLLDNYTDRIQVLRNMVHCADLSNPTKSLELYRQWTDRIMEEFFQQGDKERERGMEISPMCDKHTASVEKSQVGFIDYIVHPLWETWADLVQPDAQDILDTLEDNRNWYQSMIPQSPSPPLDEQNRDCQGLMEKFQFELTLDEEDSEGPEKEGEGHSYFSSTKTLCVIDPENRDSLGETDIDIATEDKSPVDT

Take `COc1ccc([C@H](Cc2c(Cl)c[n+]([O-])cc2Cl)OC(=O)c2ccc(CNC(C(=O)O[C@H]3CN4CCC3CC4)c3ccccc3)s2)cc1OC` (stereo in doubt; 92a): the Ki is 0.0631 nM in data set [1] and 0.2 nM in [11]. Further, the negative logarithm of the IC50 (pIC50) in data set [2] is recorded as 9; in data set [3] it was 8.8; in data set [4], 8.8. Further, the solubility kinetic at 2 h in data set [5] is 145 µM (≈ 105 µg/mL). Besides, the ED50 was determined as 0.7 nmol/kg in the data set on Cavia porcellus [6] and 0.03 µmol/kg in the data set with Rattus norvegicus [12]. Besides, the “inhibition (INH)” value worked out at 74% with Cavia porcellus [7] and 67% in the data set on Cavia porcellus [8]. Further, the IC50 in data set [9] was 1 nM. In addition, the Activity in data set [10] is reported as 12.83; in the data set with Rattus norvegicus [13], 54%; in data set [21], 30.67; in [22] it was “Non-Toxic”; in [23], “Non-Toxic”. The figures for the fraction unbound at 0.5 h, up to 2 µM in data set [14] and in [15] were 0.07 and 0.086, respectively. In addition, the half-life at 5 µM in [16] turned out to be 11 min; in data set [17] it was 9 min. Moreover, the microsomal CLint at 1 µM in [18] is 213 µL/min/mg; in data set [19] it was 126 µL/min/mg. This compound also had a Papp A→B at 1 h, 10 µM in data set [20] of 1.6 ×10⁻⁶ cm/s.

Usually Ki stands for the equilibrium dissociation constant of an inhibitor or competing ligand from its target. The term pIC50 denotes −log10 of the IC50, conventionally taken in molar units. Broadly, the ED50 is the dose that gives a 50% effect, or the effect in half of the subjects. As a reminder, the IC50 is the concentration at which inhibition is half-maximal. In general, half-life refers to how long it takes for the measured level to halve. As a reminder, the Papp A→B is how fast a substance crosses the layer from the apical side.
